In patent US8338403B2, “Drug for improving hyperglycemia” (Morinaga Milk Industry Co., Ltd., priority 2004, dated 2012):

Columns and labels:
[1] = tested on: db/db mice (type-II diabetes model mice); assay: Test Example 1: hemoglobin A1c lowering action and hyperglycemic condition improving effect, 40-day oral administration; format: in vivo; conditions: male db/db mice; for changes over time in random blood glucose levels / changes over time in fasting blood glucose levels / Hemoglobin A1c relative levels (%) 35th day from the administration: oral 1 mL of 1 μg/mL once a day; for changes over time in random blood glucose levels / changes over time in fasting blood glucose levels: 40 consecutive days; for changes over time in random blood glucose levels: FIG. 1; for changes over time in fasting blood glucose levels: after 15 hours of fasting, FIG. 2; for Hemoglobin A1c relative levels (%) 35th day from the administration: negative sample = 100
Method: This test was performed in order to evaluate the hemoglobin A1c lowering action and the hyperglycemic condition improving effect of the compounds of the present invention.
The compound 2 (4-methylcholest-7-en-3-ol), compound 3 (4-methylergost-7-en-3-ol) and compound 4 (4-methylstigmast-7-en-3-ol) produced in Preparation Example 1 mentioned above were used as test samples 1, 2 and 3, respectively.
Six-week old male db/db mice (purchased from Clea Japan, Inc.) were used as type-II diabetes model mice. These mice were divided into groups, each consisting of 7 animals. Each test sample was dissolved in DMSO, and the concentration was adjusted to 1 μg/mL with physiological saline. The final DMSO concentration was adjusted to 0.2%. […] The type-II diabetes model mice were orally administered with 1 mL of any of the test sample solutions once a day everyday with a sonde for 40 consecutive days. Further, β-sitosterol (Tama Biochemical Co., Ltd.) was administered to the model mice as a control sample 1. Fasting blood glucose levels and random blood glucose levels were measured over time by using Antisense II (Bayer-Sankyo Co., Ltd.). The fasting blood glucose levels were measured after 15 hours of fasting. Further, on the 35th day from the start of the administration, hemoglobin A1c levels were measured by using DCA 2000 (Bayer-Sankyo Co., Ltd.).

[2] = tested on: db/db mice (type-II diabetes model mice); assay: Test Example 2: hemoglobin A1c lowering action compared with a clinical antidiabetic drug, 22-day oral administration; format: in vivo; conditions: male db/db mice; for Hemoglobin A1c relative levels (%) 23th day from the administration: oral 1 mL once a day for 22 days (test samples 1 μg/mL; control sample 2 7.5 μg/mL pioglitazone hydrochloride), negative sample = 100; for decrease in hemoglobin A1c level in comparison with the negative sample: oral once a day, 23rd day
Method: Six-week old male db/db mice (purchased from Clea Japan, Inc.) were used as type-II diabetes model mice. These mice were divided into groups, each consisting of 7 animals. Each test sample was dissolved in DMSO, and the concentration was adjusted to 1 μg/mL with physiological saline. The final DMSO concentration was adjusted to 0.2%. […] Further, as a control sample 2, ACTOS® tablets (Takeda Pharmaceutical Co., Ltd.) were ground in a mortar and dissolved in physiological saline so that the concentration of pioglitazone hydrochloride as the active ingredient should become 7.5 μg/mL.

| Structure (SMILES) | changes over time in random blood glucose levels [1] | changes over time in fasting blood glucose levels [1] | Hemoglobin A1c relative levels (%) 35th day from the administration ([1]; 35th day) [%] | decrease in hemoglobin A1c level in comparison with the negative sample ([1]; oral once a day, 35th day) | hemoglobin A1c lowering effect (in words) ([1]; oral once a day, 35th day) | Hemoglobin A1c relative levels (%) 23th day from the administration [2] [%] | decrease in hemoglobin A1c level in comparison with the negative sample [2] |
| --- | --- | --- | --- | --- | --- | --- | --- |
| CC[C@H](CC[C@@H](C)[C@H]1CC[C@H]2[C@@H]3CC=C4C[C@@H](O)CC[C@]4(C)[C@H]3CC[C@]12C)C(C)C [control sample 1, β-sitosterol, reference compound] | rapid increases were observed | rapid increases were observed | 94.8 ± 8.5 | about 0.5% | almost no hemoglobin A1c lowering effect was observed |  |  |
| CC(C)CCCC(C)C1CCC2C3=CCC4C(C)C(O)CCC4(C)C3CCC21C (stereo not shown) [test sample 1, 4-methylcholest-7-en-3-ol] | effect of suppressing the increase in blood glucose levels was clearly observed | effect of suppressing the increase in blood glucose levels was clearly observed | 80.2 ± 19.2 |  |  | 89.9 ± 9.0 | about 11% |
| CC(C)C(C)CCC(C)C1CCC2C3=CCC4C(C)C(O)CCC4(C)C3CCC21C (stereo not shown) [test sample 2, 4-methylergost-7-en-3-ol] | effect of suppressing the increase in blood glucose levels was clearly observed | effect of suppressing the increase in blood glucose levels was clearly observed | 82.7 ± 21.0 |  |  | 91.0 ± 6.7 | about 11% |
| CCC(CCC(C)C1CCC2C3=CCC4C(C)C(O)CCC4(C)C3CCC21C)C(C)C (stereo not shown) [test sample 3, 4-methylstigmast-7-en-3-ol] | effect of suppressing the increase in blood glucose levels was clearly observed | effect of suppressing the increase in blood glucose levels was clearly observed | 77.8 ± 12.2 |  |  | 88.8 ± 9.0 |  |
